Assay results from patent publication US20060074243A1, “Hydroxamic acid and amide compounds and their use as protease inhibitors” (Pharmacia Corporation, priority 2002, published 2006).

Assays:
Test in all cases: In vitro MMP inhibition analysis (fluorogenic peptide substrate cleavage), Ki
Format in all cases: biochemical
Human recombinant MMP-1 = target: T1, Human recombinant MMP-1 (Homo sapiens, UniProt P03956)
T1 construct: made in house; host or cells: MMP-1-transfected HT-1080 cells (spent media)
T1 sequence (P03956 100-469): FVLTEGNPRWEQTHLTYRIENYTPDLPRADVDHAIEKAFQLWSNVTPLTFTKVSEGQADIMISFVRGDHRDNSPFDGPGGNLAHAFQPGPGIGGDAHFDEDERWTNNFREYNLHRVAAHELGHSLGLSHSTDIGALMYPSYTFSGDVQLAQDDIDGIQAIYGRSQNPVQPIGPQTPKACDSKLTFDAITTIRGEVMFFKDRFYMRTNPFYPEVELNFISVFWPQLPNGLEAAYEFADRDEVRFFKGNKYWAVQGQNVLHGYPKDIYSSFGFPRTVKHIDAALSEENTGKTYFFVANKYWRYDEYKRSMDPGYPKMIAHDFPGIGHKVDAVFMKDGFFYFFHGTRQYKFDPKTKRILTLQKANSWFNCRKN
Experimental: (§1) Several compounds and salts were analyzed in an in vitro assay to determine their ability to inhibit the MMP cleavage of peptide substrates. Inhibition constant (Ki) were calculated from the assayed compound-MMP interactions.
(§2) Human recombinant MMP-1, MMP-2, MMP-9, MMP-13, and MMP-14 were used in this assay. All enzymes were prepared in Assignee's laboratories following usual laboratory procedures. Protocols for the preparation and use of these enzymes are available in the scientific literature. See, e.g., Enzyme Nomenclature (Academic Press, San Diego, Calif., 1992) (and the citations therein). See also, Frije et al., J. Biol. Chem., 26(24), 16766-73 (1994).
The MMP-1 proenzyme was purified from the spent media of MMP-1-transfected HT-1080 cells provided by Dr. Harold Welgus of Washington University (St. Louis, Mo.). The protein was purified on a zinc chelating column.
(§3) All MMPs were activated using 4-aminophenylmercuric acetate (“APMA”, Sigma Chemical, St. Louis, Mo.) or trypsin. MMP-9 also was activated using human recombinant MMP-3 (purified in Assignee's laboratory following standard cloning and purification techniques).
(§4) The following fluorogenic, methoxycoumarin-containing polypeptide substrate (I) was used in the MMP inhibition assays: MCA-ArgProLeuGlyLeuDpaAlaArgGluArgNH2 (I) “MCA” is 7-methoxycoumarin-4-yl acetyl. Substrate (I) was prepared Assignee's laboratory. In the absence of MMP inhibitory activity, the substrate is cleaved at the Gly-Leu peptide bond. This cleavage separates the highly fluorogenic peptide from the 2,4-dinitrophenyl quencher, thus resulting in increase of fluorescent intensity.
(§5) The stock solutions of the assayed compounds and salts were prepared in […] (DMSO). These stock solutions were diluted in Buffer A (100 mM Tris-HCl, 100 mM NaCl, 10 mM CaCl2, 0.05% polyoxyethylene 23 lauryl ether, pH 7.5) to obtain solutions with different compound concentrations, i.e., assay solutions with different concentrations of the assayed […] compound. The experiment controls contained the same amount of Buffer A/DMSO as the assayed sample, but contained none of the tested compound or salt.
(§6) The assays from which the Ki determinations were made were performed as follows. The assayed compound samples were incubated in separate wells of untreated white polystyrene plates (Nunc Nalgene International, Rochester, N.Y.), and analyzed on a Tecan SpectraFlour Plus plate reader. The excitation wavelength was 330 nm, and the emission wavelength—420 nm. All samples (assayed compounds and controls) were incubated in separate plate wells at room temperature for 1 hr in the presence of 4 μM of MMP substrate (I). In the absence of MMP inhibitory activity, substrate (I) was cleaved at the Gly-Leu bond resulting in an increase of relative fluorescence. Inhibition was observed as a reduced rate of this increase in relative fluorescence. […] This protocol is a modification of method by Knight et al., FEBS Lett., 296(3), 263-266 (1992). Apparent inhibitory constants were determined by non-linear regression of reaction velocity as a function of inhibitor and enzyme concentration using Morrison's equation, as described by Kuzmic, Anal. Biochem. 286, 45-50 (2000). Modifications were made in the non-linear regression method to allow a common control reaction rate and effective enzyme concentration to be shared between all dose-response relationships on a given assay plate. Since the substrate concentration was chosen to be at or below the Km, the apparent Ki's from this analysis were reported as Ki's without correction for the influence of substrate.
(§7) The above protocols were used to determine Ki constants for the compounds in Examples 2-35 above. All Ki values in Table 1 are given in nM units.

Human recombinant MMP-2 = target: T2, Human recombinant MMP-2 (Homo sapiens, UniProt P08253)
T2 construct: made in house; host or cells: MMP-2-transfected p2AHT2 cells
T2 sequence (P08253 110-660): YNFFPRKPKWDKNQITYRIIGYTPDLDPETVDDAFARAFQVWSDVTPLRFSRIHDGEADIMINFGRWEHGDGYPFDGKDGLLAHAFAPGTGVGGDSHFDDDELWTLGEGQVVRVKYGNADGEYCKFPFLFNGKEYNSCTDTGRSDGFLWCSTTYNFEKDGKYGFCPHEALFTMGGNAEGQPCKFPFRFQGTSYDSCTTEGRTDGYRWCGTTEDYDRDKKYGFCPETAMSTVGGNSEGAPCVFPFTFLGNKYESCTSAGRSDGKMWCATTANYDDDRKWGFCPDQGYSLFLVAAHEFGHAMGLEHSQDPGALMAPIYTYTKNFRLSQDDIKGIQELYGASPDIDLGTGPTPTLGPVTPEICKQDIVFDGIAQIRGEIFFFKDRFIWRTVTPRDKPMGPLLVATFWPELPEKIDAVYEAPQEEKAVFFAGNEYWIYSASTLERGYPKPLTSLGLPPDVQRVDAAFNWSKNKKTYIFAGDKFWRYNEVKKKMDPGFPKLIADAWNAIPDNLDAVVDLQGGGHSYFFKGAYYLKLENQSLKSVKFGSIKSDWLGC
Experimental: as §1, §2
The MMP-2 proenzyme was purified by gelatin Sepharose chromatography from MMP-2-transfected p2AHT2 cells provided by Dr. Gregory Goldberg of Washington University (St. Louis, Mo.).
as §3, §4, §5, §6, §7

Human recombinant MMP-9 = target: T3, Human recombinant MMP-9 (Homo sapiens, UniProt P14780)
T3 construct: made in house; host or cells: MMP-9-transfected HT1080 cells (spent media)
T3 sequence (P14780 107-707 limits assumed): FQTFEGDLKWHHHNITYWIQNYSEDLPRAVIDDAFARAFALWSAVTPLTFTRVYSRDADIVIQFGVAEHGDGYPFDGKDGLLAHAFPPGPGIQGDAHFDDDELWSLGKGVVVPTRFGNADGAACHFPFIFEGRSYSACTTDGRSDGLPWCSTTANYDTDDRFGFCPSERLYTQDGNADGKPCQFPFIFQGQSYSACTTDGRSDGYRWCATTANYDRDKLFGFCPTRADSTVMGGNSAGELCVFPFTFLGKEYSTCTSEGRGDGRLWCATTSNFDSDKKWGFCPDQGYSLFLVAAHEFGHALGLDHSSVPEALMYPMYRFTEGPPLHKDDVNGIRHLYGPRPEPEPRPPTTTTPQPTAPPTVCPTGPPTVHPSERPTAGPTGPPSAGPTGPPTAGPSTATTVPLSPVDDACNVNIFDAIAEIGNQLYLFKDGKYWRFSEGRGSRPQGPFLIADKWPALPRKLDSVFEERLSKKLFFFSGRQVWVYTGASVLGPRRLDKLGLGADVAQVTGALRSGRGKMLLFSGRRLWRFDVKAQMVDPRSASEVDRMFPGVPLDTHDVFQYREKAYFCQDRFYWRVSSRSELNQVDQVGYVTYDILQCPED
Experimental: as §1, §2
The MMP-9 proenzyme was purified by gelatin Sepharose chromatography from spent media of MMP-9-transfected HT1080 cells provided by Dr. Howard Welgus of Washington University (St. Louis, Mo.).
as §3, §4, §5, §6, §7

Human recombinant MMP-14 = target: T4, Human recombinant MMP-14 (Homo sapiens, UniProt P50281)
T4 construct: The catalytic domain enzyme was expressed in E. coli inclusion bodies, solubilized in urea; made in house
Experimental: as §1, §2
The MMP-14 full length cDNA was provided by Dr. Gregory Goldberg of Washington University (St. Louis, Mo.). The catalytic domain enzyme was expressed in E. coli inclusion bodies, solubilized in urea, purified on a preparative […] reverse phase HPLC column, and then refolded in the presence of zinc acetate and purified for use.
as §3, §4, §5, §6, §7

Compound | Ki (Human recombinant MMP-1; Table 1) | Ki (Human recombinant MMP-2; Table 1) | Ki (Human recombinant MMP-9; Table 1) | Ki (Human recombinant MMP-14; Table 1) | Ki (Human recombinant MMP-1; Table 2) | Ki (Human recombinant MMP-2; Table 2) | Ki (Human recombinant MMP-9; Table 2) | Ki (Human recombinant MMP-14; Table 2)
COCCN1CCC(C(=O)NO)(S(=O)(=O)c2ccc(-c3ccc(CCC(C)(F)F)cc3)cc2)CC1 [Example 63] | 1750 nM | 0.04 nM | 0.08 nM | 237 nM |  |  |  | 
COCCN1CCC(C(=O)NO)(S(=O)(=O)c2ccc(-c3cnc(CCC(C)(F)F)cn3)cc2)CC1 [Example 65] | > 10000 nM | 0.952 nM | 0.375 nM | 5970 nM |  |  |  | 
COCCN1CCC(C(=O)NO)(S(=O)(=O)c2ccc(-c3ccc(CCC(C)(F)F)cn3)cc2)CC1 [Example 67] | 8470 nM | 0.14 nM | 0.19 nM | 831 nM |  |  |  | 
O=C(NO)C1(S(=O)(=O)c2ccc(-c3ccc(OC(F)(F)C(F)F)cc3)cc2)CCOCC1 [Example 68] | 231 nM | 0.0611 nM | 0.142 nM | 235 nM |  |  |  | 
O=C(NO)C1(S(=O)(=O)c2ccc(-c3ccc(OCCCC(F)(F)F)cc3)cc2)CCOCC1 [Example 74] |  |  |  |  | 1630 nM | 0.304 nM | 3.4 nM | 585 nM
CC(=O)Nc1cnc(-c2ccc(S(=O)(=O)C3(C(=O)NO)CCOCC3)cc2)cn1 [Example 76] |  |  |  |  | 9630 nM | 10.3 nM | 114 nM | 3480 nM
CCN1CCC(C(=O)NO)(S(=O)(=O)c2ccc(-c3ccc(OCCCCO)cc3)cc2)CC1 [Example 118] |  |  |  |  | 2170 nM | 0.146 nM | 0.867 nM | 741 nM
O=C(NO)C1(S(=O)(=O)c2ccc(-c3ncccn3)cc2)CCOCC1 [Example 121] |  |  |  |  | 1600 nM | 46.8 nM | 57.9 nM | 1880 nM
CCc1cnc(-c2ccc(S(=O)(=O)C3(C(=O)NO)CCOCC3)cc2)nc1 [Example 122] |  |  |  |  | 3580 nM | 5.67 nM | 4.84 nM | 315 nM
CCc1csc(Nc2ccc(-c3ccc(S(=O)(=O)C4(C(=O)NO)CCOCC4)cc3)cc2)n1 [Example 124] |  |  |  |  | > 2500 nM | 32.9 nM | 191 nM | 6230 nM
O=C(NO)C1(S(=O)(=O)c2ccc(-c3ccc(-n4ccnc4)cc3)cc2)CCOCC1 [Example 127] |  |  |  |  | 1010 nM | 0.147 nM | 1.89 nM | 414 nM
O=C(NO)C1(S(=O)(=O)c2ccc(-c3cnc(NCC4CC4)cn3)cc2)CCOCC1 [Example 128] |  |  |  |  | > 2500 nM | 5.08 nM | 4.36 nM | > 2500 nM
O=C(NO)C1(S(=O)(=O)c2ccc(-c3cnc(N4CCCCC4)cn3)cc2)CCOCC1 [Example 131] |  |  |  |  | > 10000 nM | 0.89 nM | 5.3 nM | 6240 nM
O=C(NO)C1(S(=O)(=O)c2ccc(-c3cscc3-c3ccc(F)cc3)cc2)CCOCC1 [Example 132] |  |  |  |  | > 10000 nM | 153 nM | 298 nM | 3170 nM

The next lines start with the values.

Ki (Human recombinant MMP-1; Table 1) | Ki (Human recombinant MMP-2; Table 1) | Ki (Human recombinant MMP-9; Table 1) | Ki (Human recombinant MMP-14; Table 1) | Ki (Human recombinant MMP-1; Table 2) | Ki (Human recombinant MMP-2; Table 2) | Ki (Human recombinant MMP-9; Table 2) | Ki (Human recombinant MMP-14; Table 2) | Compound
> 10000 nM | 1.65 nM | 0.677 nM | > 10000 nM |  |  |  |  | CCN1CCC(C(=O)NO)(S(=O)(=O)c2ccc(-c3cnc(CCC(C)(F)F)cn3)cc2)CC1 [Example 64]
> 10000 nM | 0.79 nM | 0.31 nM | 4260 nM |  |  |  |  | CC(F)(F)CCc1cnc(-c2ccc(S(=O)(=O)C3(C(=O)NO)CCN(C4CC4)CC3)cc2)cn1 [Example 66]
3530 nM | 0.322 nM | 0.719 nM | 708 nM |  |  |  |  | O=C(NO)C1(S(=O)(=O)c2ccc(-c3ccc(CCCC(F)(F)F)cn3)cc2)CCOCC1 [Example 69]
 |  |  |  | 1740 nM | 0.0835 nM | 0.112 nM | 159 nM | CCCCOc1cnc(-c2ccc(S(=O)(=O)C3(C(=O)NO)CCOCC3)cc2)cn1 [Example 73]
 |  |  |  | 3970 nM | 0.674 nM | 1.01 nM | 621 nM | CCCCCc1ccc(-c2ccc(S(=O)(=O)C3(C(=O)NO)CCOCC3)cc2)cc1 [Example 75]
 |  |  |  | 1770 nM | 0.093 nM | 0.15 nM | 171 nM | CCCCOc1ccc(-c2ccc(S(=O)(=O)C3(C(=O)NO)CCN(CCOC)CC3)cc2)cc1 [Example 119]
 |  |  |  | 2460 nM | 0.191 nM | 0.336 nM | 311 nM | CCCCOc1ccc(-c2ccc(S(=O)(=O)C3(C(=O)NO)CCN(C4CC4)CC3)cc2)cc1 [Example 120]
 |  |  |  | 1240 nM | 0.18 nM | 1.92 nM | 905 nM | O=C(NO)C1(S(=O)(=O)c2ccc(-c3ccc(-n4cncn4)cc3)cc2)CCOCC1 [Example 126]
 |  |  |  | 4410 nM | 0.94 nM | 8.56 nM | 745 nM | O=C(NO)C1(S(=O)(=O)c2ccc(-c3ccc(CCC4CCCCC4)cn3)cc2)CCOCC1 [Example 129]
 |  |  |  | > 1250 nM | 14.2 nM | 12.8 nM | > 1250 nM | CC(C)(C)CCNc1cnc(-c2ccc(S(=O)(=O)C3(C(=O)NO)CCOCC3)cc2)cn1 [Example 130]
 |  |  |  | 7400 nM | 11.9 nM | 35.2 nM | 4150 nM | O=C(NO)C1(S(=O)(=O)c2ccc(-c3ccc(CCC(F)(C(F)(F)F)C(F)(F)F)cn3)cc2)CCOCC1 [Example 133]
 |  |  |  | 5910 nM | 1.13 nM | 5.25 nM | 67.1 nM | O=C(NO)C1(S(=O)(=O)c2ccc(-c3noc(-c4ccc(F)cc4)n3)cc2)CCOCC1 [Example 134]
